{"source": "patent US7964624B1", "about": "“Inhibitors of serine proteases” (priority 2005, dated 2011)", "data": [{"biological_target": "T1, full-length hepatitis C viral protein NS3•4A (Hepatitis C virus genotype 1a, UniProt P27958)", "T1 construct": "hexa-histidine (N); made in house; host or cells: Sf9 insect cells (baculovirus, pVL1392)", "assay": "biochemical", "set-up": "species or system HCV sub-type strain 1a", "settings": "Enzyme Assay 2, HCV NS3 Peptide Cleavage Assay, apparent Ki", "units": {"Ki": "nM"}, "values": [{"smiles": "CNC(=O)C(=O)[C@H](CC1CC1)NC(=O)[C@@H]1C[C@]2(CC(c3cccc(Cl)c3)=NO2)CN1C(=O)[C@@H](NC(=O)[C@H]1C[C@@H]1c1c[nH]cn1)C(C)(C)C", "note": "[Compound 833]", "Ki": "< 100"}, {"smiles": "CCNC(=O)C(=O)[C@H](CC1CC1)NC(=O)[C@@H]1C[C@]2(CC(c3cccc(Cl)c3)=NO2)CN1C(=O)[C@@H](NC(=O)CC1CCCCC1)C(C)(C)C", "note": "[Compound 836]", "Ki": "< 100"}, {"smiles": "CCNC(=O)C(=O)[C@H](CC1CC1)NC(=O)[C@@H]1C[C@]2(CC(c3cc(C)c(OC)c(C)c3)=NO2)CN1C(=O)[C@@H](NC(=O)[C@@H]1CC1c1ccccc1)C(C)(C)C", "note": "(stereo partly drawn) [Compound 845]", "Ki": "< 100"}, {"smiles": "CNC(=O)C(=O)[C@H](CC1CC1)NC(=O)[C@@H]1C[C@]2(CC(c3cccc(Cl)c3)=NO2)CN1C(=O)[C@@H](NC(=O)[C@@H]1CC12CCCCC2)C(C)(C)C", "note": "[Compound 850]", "Ki": "< 100"}, {"smiles": "CNC(=O)C(=O)[C@H](CC1CC1)NC(=O)[C@@H]1C[C@]2(CC(c3cccc(Cl)c3)=NO2)CN1C(=O)[C@@H](NC(=O)OC1CCC1)C(C)(C)C", "note": "[Compound 851]", "Ki": "< 100"}, {"smiles": "CCNC(=O)C(=O)[C@H](CC1CC1)NC(=O)[C@@H]1C[C@]2(CC(c3cc(C)c(OC)c(Cl)c3)=NO2)CN1C(=O)[C@@H](NC(=O)[C@@H]1C[C@H]1c1ccccc1)C(C)(C)C", "note": "[Compound 856]", "Ki": "< 100"}, {"smiles": "CCC[C@H](NC(=O)[C@@H]1C[C@]2(CC(c3cc(C)c(OCC)c(C)c3)=NO2)CN1C(=O)[C@@H](NC(=O)OC1CCCC1)C(C)(C)C)C(=O)C(=O)NC1CC1", "note": "[Compound 860]", "Ki": "< 100"}, {"smiles": "CNC(=O)C(=O)[C@H](CC1CC1)NC(=O)[C@@H]1C[C@]2(CC(c3cccc(Cl)c3)=NO2)CN1C(=O)[C@@H](NC(=O)[C@@H]1C[C@H]1c1ccccc1OC)C(C)(C)C", "note": "[Compound 867]", "Ki": "< 100"}, {"smiles": "CNC(=O)C(=O)[C@H](CC1CC1)NC(=O)[C@@H]1C[C@]2(CC(c3cccc(Cl)c3)=NO2)CN1C(=O)[C@@H](NC(=O)[C@@H]1C[C@H]1c1ccccn1)C(C)(C)C", "note": "[Compound 869]", "Ki": "< 100"}, {"smiles": "CCC[C@H](NC(=O)[C@@H]1C[C@]2(CC(c3cc(C)c(OC)cc3OC)=NO2)CN1C(=O)[C@@H](NC(=O)[C@@H]1C[C@H]1c1ccccc1)C(C)(C)C)C(=O)C(=O)NC1CC1", "note": "[Compound 875]", "Ki": "< 100"}, {"smiles": "CNC(=O)C(=O)[C@H](CC1CC1)NC(=O)[C@@H]1C[C@]2(CC(c3cccc(Cl)c3)=NO2)CN1C(=O)[C@@H](NC(=O)[C@@H]1C[C@H]1c1cccnc1)C(C)(C)C", "note": "[Compound 885]", "Ki": "100 to 500"}, {"smiles": "CNC(=O)C(=O)[C@H](CC1CC1)NC(=O)[C@@H]1C[C@]2(CC(c3cccc(Cl)c3)=NO2)CN1C(=O)[C@@H](NC(=O)[C@@H]1C[C@@H]1c1ccccn1)C(C)(C)C", "note": "[Compound 886]", "Ki": "< 100"}, {"smiles": "CNC(=O)C(=O)[C@H](CC1CC1)NC(=O)[C@@H]1C[C@]2(CC(c3cccc(Cl)c3)=NO2)CN1C(=O)[C@@H](NC(=O)[C@H]1C[C@H]1c1ccccc1)C(C)(C)C", "note": "[Compound 887]", "Ki": "100 to 500"}, {"smiles": "CCNC(=O)C(=O)[C@H](CC1CC1)NC(=O)[C@@H]1C[C@]2(CC(c3cc(Cl)c(OC)cc3OC)=NO2)CN1C(=O)[C@@H](NC(=O)C1CC1)C(C)(C)C", "note": "[Compound 896]", "Ki": "< 100"}, {"smiles": "CCC[C@H](NC(=O)[C@@H]1C[C@]2(CC(c3cccc(Cl)c3)=NO2)CN1C(=O)[C@@H](NC(=O)[C@@H]1C[C@H]1C(C)C)C(C)(C)C)C(=O)C(=O)NC1CC1", "note": "[Compound 897]", "Ki": "< 100"}, {"smiles": "COc1ccc(Cl)cc1C1=NO[C@]2(C1)C[C@@H](C(=O)N[C@@H](CC1CC1)C(=O)C(N)=O)N(C(=O)[C@@H](NC(=O)[C@@H]1C[C@H]1c1ccccc1)C(C)(C)C)C2", "note": "[Compound 901]", "Ki": "< 100"}, {"smiles": "CNC(=O)C(=O)[C@H](CC1CC1)NC(=O)[C@@H]1C[C@]2(CC(c3cc(Cl)ccc3OC)=NO2)CN1C(=O)[C@@H](NC(=O)[C@H]1C[C@@H]1c1ccccc1)C(C)(C)C", "note": "[Compound 903]", "Ki": "< 100"}, {"smiles": "CCC[C@H](NC(=O)[C@@H]1C[C@]2(CC(N3Cc4ccccc4C3)=NO2)CN1C(=O)[C@@H](NC(=O)OC1CCCC1)C(C)(C)C)C(=O)C(=O)NC1CC1", "note": "[Compound 904]", "Ki": "< 100"}]}]}
